Measured values taken from US11155814B2, “Methods for using DNA repair for cell engineering” (Caribou Biosciences, Inc., priority 2016, dated 2021).

System: HEK293T cells
Assay: Compound treatment: DNA-PK inhibitor added after sgRNP nucleofection, DNA repair outcomes profiled by amplicon sequencing
Type: cell-based, human
Method: For compound treatments, sgRNP formation and nucleofection of 293T cells was performed as described above and cells were plated in 150 μl of culture medium. One hour after plating, 50 μl of media containing compound at 4× the final concentration were delivered to the cells. […] 48 hours after compound addition, cells were harvested and processed for genomic DNA preparation as described below.
K562 cells and HSCs were transferred to a thermal cycler compatible plate and pelleted by centrifugation. After the media was gently aspirated, 50 μl EpiBio QuickExtract DNA extraction solution (Epicentre, QE09050) was added into each well and the plate was incubated at 37° C. for 15 minutes. For HEK293 and HCT116 cells, media was gently aspirated from 96-well culture plates and cells were gently rinsed with 1×Phosphate Buffered Saline (PBS). 50 μl of EpiBio QuickExtract DNA extraction solution was added to each well and the plates were incubated at 37° C. for 15 minutes. For all cell types, molecular biology grade water (Teknova) was added to each well to attain a concentration of 1000 genomic copies/μl for subsequent PCR reactions. After addition of water, adherent cells were then transferred to thermal cycler compatible plates. All cell types were lysed (75° C. 10 min, 95° C. 5 min) and the lysate was stored at −80° C. […]
Following secondary alignment, reads were then categorized as “mutant” if they contained an indel within ±5 base pairs of the cut site; otherwise, they were categorized as “wild type”. Each mutant read was assigned to an “indel class” based on the indel type (insertion or deletion), start site, and length.
Heat maps were generated from the processed sequencing data as follows. […] The color intensities in the cells correspond to frequency as a fraction of mutant reads, with the color scale ranging from 0 to 0.2 (saturation). […]

[1] = as inhibitor concentration increased (1.56 μM-25 μM), 48 hours

For O=c1cc(N2CCOCC2)oc2c(-c3cccc4c3sc3ccccc34)cccc12 [NU7441], the “mean frequency of a subset of large deletions (>3 base pairs) present in the DNA repair profiles” value [1] was “increased”, the “mean frequency of single base insertions and small deletions (<3 base pairs)” value [1] was “decreased” and the “change of the DNA repair patterns at 12 different target sites compared with untreated samples” value (lowest concentration of inhibitor (1.56 μM), added one hour post nucleofection, harvested 48 hours) was “apparent”.
